# Measurements from EP0545103A1, “Insecticidal, acaricidal and molluscicidal 1-(substituted) thioalkylpyrroles” (priority 1991, dated 1993).
# How the values were obtained:
# Type in all cases: in vivo
# Design in all cases: key: 0: no effect; 10-25% kill; 26-35% kill; 36-45% kill; 46-55% kill; 56-65% kill; 66-75% kill; 76-85% kill; 86-99% kill; 9: 100% kill
# [1] = test system: Heliothis virescens, egg, tobacco budworm; assay: Tobacco budworm egg test, dipped cotton leaf and eggs; details: mortality rating after 3 days
# How it was run: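 Compound dissolved at 10,000 ppm in 35% aqueous acetone, diluted with water. A cotton leaf and a cheesecloth square with roughly 50-100 eggs aged 6-30 h are each dipped for about 3 s, then combined and kept humid. Mortality counted after 3 days and rated on a scale.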
# [2] = test system: Spodoptera eridania, 3rd instar larvae, southern armyworm; assay: Southern armyworm systemic uptake (stem systemic) test; details: cut stem in emulsion 3 days
# [3] = test system: Spodoptera eridania, 3rd instar larvae, southern armyworm; assay: Southern armyworm 7-day residual test; details: R designates Residual: 7-day residual foliage, concentration not given; for ARMYWORM Day 3 R: rating at 3 days; for ARMYWORM Day 5 R: rating at 5 days
# How it was run: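 Compound was dissolved in 35% aqueous acetone (10,000 ppm stock) and diluted with water before treating lima bean leaves. The leaves were aged 7 days under high-intensity greenhouse lamps (14 h day). Third-instar Spodoptera eridania larvae were then assayed on the foliage and rated on a scale.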
# [4] = test system: Heliothis virescens, 3rd instar tobacco budworm; assay: Tobacco budworm 3rd instar test, dipped cotton cotyledons; details: mortality rating after 3 days
# How it was run: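 Cotton cotyledons dipped in compound solution (10,000 ppm stock in 35% aqueous acetone, water dilutions), dried and quartered. One caterpillar per section, ten sections per treatment. After 3 days, mortality and feeding-damage reduction scored on a rating scale.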
# [5] = test system: Diabrotic undecimpunctata howardi, 3rd instar southern corn rootworm; assay: Southern corn rootworm soil test; details: mortality rating after 6 days
# How it was run: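 Compound applied in acetone to talc at 1.25 and 0.25 mg active ingredient per jar (about 50 and 10 kg/ha), dried, then mixed with millet seed and moist soil. Ten 3rd instar larvae added per jar; mortality counted at 6 days, with missing larvae scored dead. Results rated on a scale.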
# [6] = test system: Empoasca abrupta, adult, western potato leafhopper; assay: Western potato leafhopper systemic uptake test; details: 100 ppm
# How it was run: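 Cut Sieva lima bean stems stood 3 days at 27 °C in aqueous emulsion of test material (100 ppm, further 10-fold dilutions) for systemic uptake. One leaf then exposed to about 10 adult leafhoppers in a moist petri dish; mortality counted after 2 days and rated on a scale.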
# [7] = cut stem in emulsion 3 days, mortality rating after 2 days
# [8] = systemic uptake, rating scale 0-9
SMILES,TOBACCO BUDWORM Egg ([1]; 100 ppm),TOBACCO BUDWORM Egg ([1]; 1000 ppm),ARMYWORM Stem Sys [2],ARMYWORM Day 3 R [3],ARMYWORM Day 5 R [3],TOBACCO BUDWORM 3rd Instar ([4]; 10 ppm),TOBACCO BUDWORM 3rd Instar ([4]; 100 ppm),TOBACCO BUDWORM 3rd Instar ([4]; 1000 ppm),SOUTHERN CORN ROOTWORM ([5]; 1 (ppm as headed)),SOUTHERN CORN ROOTWORM ([5]; 10 (ppm as headed)),SOUTHERN CORN ROOTWORM ([5]; 50 (ppm as headed)),"LEAFHOPPER Systemic [6, 7]","LEAFHOPPER Systemic [6, 8]",TOBACCO BUDWORM Egg ([1]; 300 ppm)
CN=C(NC)SCn1c(-c2ccc(Cl)cc2)c(C#N)c(Cl)c1C(F)(F)F [Example 2],0,0,0,9 (100% kill),9 (100% kill),9 (100% kill),9 (100% kill),9 (100% kill),0,0,8 (86-99% kill),0,,
CN(C)C(=S)SCn1c(-c2ccc(Cl)cc2)c(C#N)c(Cl)c1C(F)(F)F [Example 21],0,0,0,9 (100% kill),9 (100% kill),9 (100% kill),9 (100% kill),9 (100% kill),0,0,9 (100% kill),0,,
"N#Cc1c(Br)c(Br)n(CSc2ccccc2)c1-c1ccc(C(F)(F)F)cc1 [Example 45, 4,5-dibromo-1-[(phenylthio)methyl]-2-(alpha, alpha,alpha-trifluoro-p-tolyl)pyrrole-3-carbonitrile]",,0,0,0,0,,0,0,,,0,,,
CN=C(NC)SCn1c(Br)c(Br)c(C#N)c1Br [Example 14],,0,0,0,5 (56-65% kill),,0,8 (86-99% kill),,,0,,7 (76-85% kill),
CCOC(=S)SCn1c(Cl)c(Cl)c(C#N)c1-c1ccc(Cl)c(Cl)c1 [Example 28],0,0,0,9 (100% kill),9 (100% kill),0,,,,,0,,0,
CN(C)C(=S)SCn1c(-c2ccc(Cl)cc2)c(C#N)c(Br)c1C(F)(F)F [Example 24],,0,0,9 (100% kill),9 (100% kill),0,9 (100% kill),9 (100% kill),0,0,9 (100% kill),0,,
FC(F)(F)c1c(Br)c(-c2ccc(Cl)c(Cl)c2)n(CSC2=NCCCN2)c1C(F)(F)F [Example 17],,0,0,9 (100% kill),9 (100% kill),,,,,,7 (76-85% kill),,0,
CCOC(=S)SCn1c(-c2ccc(Cl)cc2)c(C#N)c(Br)c1C(F)(F)F [Example 29],0,4 (46-55% kill),0,9 (100% kill),9 (100% kill),,,,,,9 (100% kill),,0,
CN=C(NC)SCn1c(Cl)c(C#N)c(Cl)c1-c1ccc(Cl)c(Cl)c1 [Example 19],,0,0,9 (100% kill),9 (100% kill),0,9 (100% kill),9 (100% kill),,,0,,0,
CSCn1c(Br)c(Br)c(C#N)c1-c1ccc(C(F)(F)F)cc1 [Example 44],,0,0,0,2 (26-35% kill),0,0,9 (100% kill),,0,3 (36-45% kill),0,,
CSCn1c(-c2ccc(Cl)cc2)c(C#N)c(Br)c1C(F)(F)F [Example 25],,0,0,9 (100% kill),9 (100% kill),,,,,0,0,0,,
CCOC(=S)SCn1c(-c2ccc(Cl)c(Cl)c2)c(Br)c(C(F)(F)F)c1C(F)(F)F [Example 35],,0,0,9 (100% kill),9 (100% kill),,,,,,0,,0,
N#Cc1c(Br)c(C(F)(F)F)n(CSC2=NCCN2)c1-c1ccc(Cl)cc1 [Example 7],0,9 (100% kill),0,9 (100% kill),9 (100% kill),,,,0,0,9 (100% kill),0,,8 (86-99% kill)
CC(C)OC(=S)SCn1c(-c2ccc(Cl)cc2)c(C#N)c(Br)c1C(F)(F)F [Example 30],0,0,0,9 (100% kill),9 (100% kill),,,,,,9 (100% kill),,0,
